pIC50: −log10 of the molar value.
tested on: P. falciparum 3D7 growth, pLDH absorbance; test: blood-stage malaria parasite growth potency – strain 3D7, dose response (AID 2305)

Point of comparison: `CS(=O)(=O)NCCCNCc1ccc(-c2ccc(-c3nc4ccc(F)cc4[nH]3)cc2)cc1`, pIC50 6.03. Against it:
- O=C(/C=C/c1ccc(Cl)c(Cl)c1)NCCCCCN1CCCN(C(=S)Nc2ccc(Cl)c(Cl)c2)CC1 — within 0.2 log units, 6.06
- O=C(NC1CC1)c1cnc(N2CCN(Cc3ccc(Cl)cc3)CC2)c(Cl)c1 — within 0.2 log units, 6.07
- NC(=NCCCc1ccccc1)c1cccc(C(N)=NCCCc2ccccc2)n1 — within 0.2 log units, 5.86
- O=C([C@@H]1CCCCN1c1ccc([N+](=O)[O-])c2ccccc12)N1CCN(c2ncccn2)CC1 — 0.67 log units higher, 6.70
- O=C(Nc1cccc(N2CCC(NCCCn3ccnc3)CC2)c1)c1cccc(C(F)(F)F)c1 — within 0.2 log units, 5.95
- NC(=O)Nc1ccc2cn[nH]c2c1 — 0.65 log units higher, 6.68
- CC(=O)Nc1ccc2[nH]cc(C3CCN(CC4CCN(C(=O)/C=C/c5ccc(Cl)c(Cl)c5)CC4)CC3)c2c1 — within 0.2 log units, 6.14
- O=c1cc(NCCCNCc2cc3c(Cl)cc(Cl)cc3[nH]2)[nH]c2ccccc12 — within 0.2 log units, 6.07
- O=C(NCCCCN1CCC(c2ccc3c(c2OCCN2CCCC2=O)CCCC3)CC1)c1ccc(-c2ccc(C(F)(F)F)cc2)cc1 — 0.21 log units lower, 5.82
- O=C(NCc1ccc(F)cc1)Nc1ccc(-c2cccc(-c3nc4ccc(F)cc4[nH]3)c2)cc1 — within 0.2 log units, 5.95
- C=CCc1ccc(C[C@H](NC(=O)OC(C)(C)C)C(=O)OC)cc1 — within 0.2 log units, 6.09
- CN(Cc1cnc2nc(N)nc(N)c2n1)c1ccc(C(=O)NC(CCC(=O)O)C(=O)O)cc1 (stereo unspecified) — 0.71 log units higher, 6.74
- N#Cc1ccc2c(c1)CN(CCC1CCC(NC(=O)c3cc4ccccc4cc3N)CC1)CC2 (stereo unspecified) — within 0.2 log units, 5.98
- CCCCCN1C(=O)N(c2ccc(Cl)c(Cl)c2)C(N(O)C(=O)Nc2ccc(Cl)c(Cl)c2)C1(C)C (stereo unspecified) — 0.23 log units higher, 6.26
- Cc1oc(-c2cccc(Oc3ccccc3)c2)nc1CN(Cc1cnn(C)c1)C(C)C — within 0.2 log units, 5.96
- O=C(c1ccc(-c2cnc3[nH]cc(-c4ccc(C(=O)N5CCOCC5)cc4)c3c2)cc1)N1CCOCC1 — within 0.2 log units, 6.00
- COC(=O)c1ccc(-c2ccc(-c3cccnc3)cc2C)cc1 — within 0.2 log units, 6.18
- Cc1ccc2[nH]c(-c3ccc(/C=C/C(=O)NC4CCN(Cc5ccccc5)CC4)cc3)nc2c1C — within 0.2 log units, 6.20
- Cc1cc(N2CCN(CC3CCCCC3)CC2)nc(Nc2ccc(Br)cc2)n1 — within 0.2 log units, 5.96
- CC(C)[C@@H](C(=O)NCc1cccc(C(F)(F)F)c1)N1C(=O)CCC1C(=O)Nc1ccc([N+](=O)[O-])cc1 (stereo partly specified) — the same, 6.03
- CNC(=O)c1ccc2nc(C3CC3)n(CC3CCN(S(=O)(=O)c4cccc(Cl)c4)CC3)c2c1 — within 0.2 log units, 6.19
- CCCCCCN1CCN(Cc2cccc(NC(=O)c3ccc(Cl)c(Cl)c3)c2)CC1 — within 0.2 log units, 6.21
- CCN(C(=O)CSc1cc(C)c2cc(C)cc(C)c2n1)C1CCS(=O)(=O)C1 (stereo unspecified) — within 0.2 log units, 6.17
- COC(=O)c1ccc(CC(C)NCC(O)c2cccc(SC(F)(F)F)c2)cc1 (stereo unspecified) — within 0.2 log units, 6.05
- OC[C@H](Nc1nc(C(Oc2ccccc2)c2ccccc2)nc2[nH]ncc12)c1ccccc1 (stereo partly specified) — within 0.2 log units, 6.07
- Clc1ccc2c(NN=Cc3ccco3)ccnc2c1 — within 0.2 log units, 5.96
- O=C(NC1c2ccccc2Oc2ccccc21)c1ccccc1O — within 0.2 log units, 6.08
- Cc1ccc2nc(-c3ccc(C(=O)NC4CCN(Cc5ccccc5)CC4)s3)[nH]c2c1 — within 0.2 log units, 6.00
- Cc1ccccc1C1CCN(C2CCC(NC(=O)/C=C/c3cccc(F)c3)CC2)CC1 (stereo unspecified) — within 0.2 log units, 5.92
- CC(=O)Nc1ccc(CN(Cc2ccc(F)cc2)Cc2cccc(Oc3ccccc3)c2)cc1 — the same, 6.03
- NC1CCN(CCc2ccc(NS(=O)(=O)c3ccc(-c4ccccc4)cc3)cc2)CC1 — within 0.2 log units, 5.99
- COCCNCc1ccc(-c2ccc3c(Nc4ccc(Cl)cc4F)ccnc3c2)o1 — 0.65 log units higher, 6.68
- O=C(/C=C/c1ccccc1)N1CCOC(CCN2CCC(c3ccccc3)CC2)(c2ccc(Cl)c(Cl)c2)C1 (stereo unspecified) — 0.25 log units higher, 6.28
- O=C(/C=C/c1ccc(Cl)c(Cl)c1)N1CCC(CN2CCC(c3cn(CC(=O)N4CCCCC4)c4ccccc34)CC2)CC1 — within 0.2 log units, 6.12
- Ic1cc(Nc2ncnc3ccsc23)ccc1OCc1ccccc1 — within 0.2 log units, 6.11
- O=C(Nc1ccc(-c2nc3ccccc3[nH]2)cc1)c1cccc([N+](=O)[O-])c1 — 0.63 log units higher, 6.66
- COc1cc(NC(=O)c2cc([N+](=O)[O-])ccc2NC(=O)CNC2CCCCC2C)cc(OC)c1 (stereo unspecified) — 0.27 log units lower, 5.76
- NC(N)=NC(=O)Nc1cc(Cl)c(F)c(Cl)c1 — within 0.2 log units, 6.19
- Cc1[nH]cnc1CSCCNC(=NCCCCCCCCN=C(NC#N)NCCSCc1nc[nH]c1C)NC#N — within 0.2 log units, 5.90
- O=C(Nc1ccc(-c2ccc(-c3nc4ccccc4[nH]3)s2)cc1)c1ccncc1 — within 0.2 log units, 6.10
- CN(C)C(CNC(=O)c1cc(-c2ccncc2)c(-c2ccc(NC(=O)Nc3ccccc3)cc2)o1)c1ccccc1 (stereo unspecified) — within 0.2 log units, 6.22
- O=C(NC1CCC(N2CCCC(OCc3ccccc3)C2)CC1)c1cc2ccccc2[nH]1 (stereo unspecified) — within 0.2 log units, 5.92
- c1ccc(COc2ccc(Nc3ncnc4cnc(-c5ccc(CNc6cccnc6)o5)cc34)cc2)cc1 — within 0.2 log units, 6.07
- COC(=O)Cc1ccc(N)c2ccccc12 — within 0.2 log units, 6.15
- Cn1cncc1-c1cc2c(Nc3ccc(OCc4ccccc4)cc3)ncnc2cn1 — 0.54 log units higher, 6.57
- COc1ccc(N2CCN(CCCCNCc3ccc(NC(=O)c4cc(Cl)cc(Cl)c4)cc3)CC2)c(OC)c1 — 0.57 log units higher, 6.60
- O=C(Nc1ccc(Br)cc1)c1cc(Br)ccc1NS(=O)(=O)c1ccc(C(F)(F)F)cc1 — 0.71 log units higher, 6.74
- COc1ccc2ccc(F)c(CC(=O)N3CCOC(CNCc4cccc(-c5ccc(F)cc5)n4)C3)c2n1 (stereo unspecified) — within 0.2 log units, 6.00
- COc1ccc(CNCc2ccc(F)cc2)cc1-c1ccc(S(=O)(=O)NCCN2CCCC2)c(C)c1 — within 0.2 log units, 6.14
- O=C(Nc1ccc(Cn2nc(Cl)c(N3CCCNCC3)cc2=O)cc1)c1ccc(-c2ccccc2)cc1 — within 0.2 log units, 6.15
- COc1ccc(C2CC(=O)C3=C(C2)NC(C)=C(C(=O)OC2CCCC2)C3c2cccc(O)c2)cc1OC (stereo unspecified) — 0.63 log units higher, 6.66
- CC(C)C1CCc2nc(N)nc(N)c2C1 (stereo unspecified) — 0.82 log units higher, 6.85
- COc1cc2nc(NCCc3ccccc3)nc(N(C)Cc3ccccc3)c2cc1OC — within 0.2 log units, 6.08
- COc1cc(CN2CCC(NC(=O)[C@H](Cc3ccccc3)NC(=O)Nc3ccc(Oc4ccccc4)cc3)C2)ccc1O (stereo partly specified) — within 0.2 log units, 6.09
- O=C(/C=C/c1ccc2ccccc2c1)NCC1(c2ccc(-c3ccccc3)cc2)CCOCC1 — 0.21 log units lower, 5.82
- Cc1ccc(NC(=O)c2ccc(CN3CCCN(Cc4cccc(Cl)c4)CC3)cc2)cc1C — within 0.2 log units, 5.92
- c1ccc2cc(CNCCCN3CCN(CCCNCc4ccc5ccccc5c4)CC3)ccc2c1 — 0.23 log units higher, 6.26
- COc1ccc(CSC2CCCCC23NC(=S)NC3=S)cc1 (stereo unspecified) — within 0.2 log units, 6.07
- CN1CCN(c2cc3c(cc2Br)CCN3C(=O)Nc2ccc(-c3cnc4ccccc4c3)cc2)CC1 — 0.21 log units higher, 6.24
- OC1CCCN(Cc2ccc(-c3cccc(-c4nc5ccccc5[nH]4)c3)cc2)C1 (stereo unspecified) — within 0.2 log units, 5.87
- COc1cccc(CCc2c(CCNCCCCCCNCCc3ccccc3)ccc(OC)c2OC)c1 — within 0.2 log units, 6.14
- COc1ccc(Cn2c(Nc3cccc(C(F)(F)F)c3)nc3cc(C(=O)NCCCN(C)C)ccc32)cc1Cl — within 0.2 log units, 6.04
- O=C(/C=C/c1ccc(Cl)c(Cl)c1)NCCCCCN1CCC(NC(=S)Nc2ccc(Cl)c(Cl)c2)CC1 — 0.25 log units higher, 6.28
- CN(CCCCNC(=O)c1ccc(-c2ccccc2)cc1)C1CCc2c(O)cccc2C1 (stereo unspecified) — within 0.2 log units, 6.14
- Cc1cccc2[nH]c(-c3ccc(-c4cccc(CN5CCCC(O)C5)c4)s3)nc12 (stereo unspecified) — the same, 6.03
- COc1ccc(CNC2CCN(C)CC2)cc1-c1ccc(S(=O)(=O)NC2CCC2)cc1 — within 0.2 log units, 6.06
- CN(C)CCNC(=O)c1cccc(-c2cnc3ccc(NCc4ccc(Cl)c(Cl)c4)nn23)c1 — within 0.2 log units, 6.15
- O=C(Nc1ccc(F)cc1)NC1CCN(c2ccnc3ccccc23)C1 (stereo unspecified) — within 0.2 log units, 6.06
- c1ccc(-c2[nH]c3ccccc3c2CN2CCC(N3CCCCC3)CC2)nc1 — within 0.2 log units, 5.92
- O=C(NC1CC1)c1ccc(N2CCC(c3ccccc3)CC2)nc1 — within 0.2 log units, 5.95
- CCc1cn(C)c2c(N3CCCC3=O)cc(C(=O)N[C@@H](Cc3ccccc3)[C@H](O)CNC3CCCCC3)cc12 — 0.89 log units higher, 6.92
- Cc1cc(N)nc2ccc(-c3cccc(CN)c3)cc12 — within 0.2 log units, 6.15
- CC(=O)C1(c2ccccc2)CCN(CCC(NC(=O)c2cc(C(F)(F)F)cc(C(F)(F)F)c2)c2ccc(Cl)c(Cl)c2)CC1 (stereo unspecified) — within 0.2 log units, 5.92
- CCCCCCN(C(=O)OCc1ccccc1)[C@@H]1CCN(C(=O)OC(C)(C)C)C[C@H]1C(=O)OCC — 0.40 log units higher, 6.43
- COc1cc(OC)cc(C(=O)Nc2nc(-c3ccccn3)cs2)c1 — 0.22 log units higher, 6.25
- COc1ccc(C2CC(c3ccccc3O)=NN2C(=O)c2ccco2)cc1OC (stereo unspecified) — within 0.2 log units, 6.02
- COc1cccc(CCNc2nc(NCc3ccccc3)c3cc(OC)c(OC)cc3n2)c1 — 0.46 log units higher, 6.49
- C[C@@H]([C@@H](CCCCc1ccccc1)C(=O)N[C@H](C(=O)Nc1cccnc1)C(C)(C)C)N(O)C=O — the same, 6.03
- CN(c1ccc2c(c1)nc(NC(=O)C1(c3cc(F)ccc3F)CC1)n2C)c1ccnc(Nc2cccc(CS(C)(=O)=O)c2)n1 — within 0.2 log units, 5.96
- O=C(NCC1CCN(Cc2ccc3c(c2)OCCO3)C1)c1cc(-c2ccccc2F)cs1 (stereo unspecified) — within 0.2 log units, 5.99
- COc1ccc(-c2ccc(CN(C)C3CCC(NC(=O)c4cc5ccccc5[nH]4)CC3)cc2)cn1 (stereo unspecified) — within 0.2 log units, 6.06
- COc1ccc(NC(=O)[C@H](Cc2ccccc2)Nc2cc(C)nc(NCC3CCCCC3)n2)cc1 — within 0.2 log units, 6.17
- CCN1CCN(c2ccc(NC(=O)c3cc4c(C)nn(-c5ccccc5)c4s3)cc2C)CC1 — within 0.2 log units, 6.12
- O=C(O)c1ccc(NC(=O)C2CC(=O)N(Cc3ccc(Cl)cc3)C(=Nc3ccc(Cl)cc3)S2)cc1 (stereo unspecified) — 0.25 log units higher, 6.28
- O=C(Nc1ccc2c(c1)CCCN2S(=O)(=O)c1cccs1)c1cc([N+](=O)[O-])ccc1Cl — within 0.2 log units, 6.08
- C=CC[C@@H](C(=O)OCC)[C@@H]1[C@@H](N(CC=C)C(=O)OC(C)(C)C)CCN1C(=O)OCc1ccccc1 — within 0.2 log units, 6.02
- c1ccc(-c2cc(NCc3cccc4ccccc34)c3[nH]ncc3n2)cc1 — 0.25 log units higher, 6.28
- N#Cc1ccc(-c2ccc(C(=O)NCCCCN3CCC(c4ccncc4)CC3)cc2)cc1 — within 0.2 log units, 6.09
- CC(=O)N(Cc1cccc(-c2cccc(CNCCc3ccccc3)c2)c1)C1CCN(Cc2ccccc2)CC1 — within 0.2 log units, 6.17
- CCCOc1cc(OCCC)cc(-c2ccc(C(=O)Nc3ccc4ccc(C)nc4c3)c(=O)[nH]2)c1 — within 0.2 log units, 6.12
- COc1cc2ncnc(Nc3ccc(OCc4ccccc4)c(OCc4ccccc4)c3)c2cc1OC — within 0.2 log units, 6.13
- Cc1cccc2[nH]c(-c3cccc(-c4cccc(NC(=O)C5CC(=O)Nc6ccccc65)c4)c3)nc12 (stereo unspecified) — 1.19 log units higher, 7.22
- O=C(Nc1ccc(C(F)(F)F)cc1)N[C@H]1CCN(CCCCCNC(=O)[C@@H]2C[C@H]2c2ccc(Cl)c(Cl)c2)C1 — within 0.2 log units, 5.96
- O=C(Nc1cccc(-c2nn3ccccc3c2-c2ccnc(Nc3cccc(F)c3)n2)c1)c1c(F)ccc(F)c1F — within 0.2 log units, 6.07
- CC(C)CNCc1ccc(-c2cccc(CN(C(=O)Nc3ccccc3)C3CCN(Cc4ccccc4)CC3)c2)cc1 — 0.36 log units higher, 6.39
